Test results taken from US12521564B2, “Method and apparatus for oncomagnetic treatment” (THE METHODIST HOSPITAL, priority 2020, dated 2026).
“Also recorded” adds a separate entry of the source.

Assays:
[1] = system: GBM cells; conditions: FCCP added after 2-3 OMF stimulation cycles
Method: In cultured GBM156 cells 10-minute stimulation/pause cycles were used to provoke a MPT response.
Oxygen electrode data collection: A thermostatically controlled (37° C.), water-jacketed, glass-walled, Clark-type O2 electrode was used throughout. […] The oncoscillator was attached to the end of a microphone stand and was held perpendicular to the outer glass wall of the electrode, so that there was an air gap of ≈5 mm between the two devices. There was a degree of crosstalk between to stirring bar of the O2-electrode chamber and the oncoscillator; this interaction manifests itself as jumps or drops in the apparent O2 concentrations at the beginning or the end of OMF stimulation. […] The stirrer velocity was therefore optimized to negate the interaction with the oncoscillator.
Tumor culture preparations: GBM and meningioma tumors were taken at the time of (first) excision and given the laboratory ID. They were washed in PBS, chopped with a scalpel and homogenized in a BeadBug™ homogenizer using 1.5 mm Zirconium beads, in an equal volume of PBS. […] The homogenates were grown in DMEM with 20% FBS, 1U GlutaMax™, sodium pyruvate (1 mM), penicillin (100 U/ml), and streptomycin (100 mg/ml). […]
Cells were grown to confluency, counted, harvested using trypsin, washed in ice-cold PBS and stored on ice at 8×10^9 cells/ml. O2 consumption of cells was measured in PBS, 10 mM glucose, 37° C. […]

[2] = system: GBM cells; test: Surviving cell count after OMF stimulation in presence of drugs; format: cell-based, human
From the text: Histograms of the percentage of cells plotted against the normalized fluorescence intensity (ratio of intensity to the width of the forward scatter) measured by flow cytometry of H2DCF-stained GBM (U87) and normal astroglial (SVGp12) cells reveal nearly a two-fold increase in GBM cells due to OMF, but a ˜50% decrease in astroglial cells (FIG. 44). To test whether cell death is caused by the OMF-induced increase in ROS, a potent antioxidant Trolox was used to counteract it, while measuring the decrease in GBM cell count due to 4 h exposure to OMF. Conversely, it also was asked whether OMF potentiates the cell killing effect of a known ROS inducer, benzylamine. […] Magnetically influenced RPM plays a role in ubiquitously expressed flavoproteins called cryptochromes, which can also generate ROS when perturbed by magnetic fields. Cryptochrome agonists have been recently shown to inhibit cancer stem cell proliferation in GBM. This alternative possibility for generation of ROS by OMF was tested by counting surviving cells after two 4 h sessions of OMF stimulation over 24 h in the presence and absence of a cryptochrome antagonist, KS15. […] According to a certain setup, cells grown in 96-well cell culture plates were OMF stimulated, sham stimulated or unstimulated for 4 h inside humidified CO2 incubator. Paraformaldehyde (4% w/v in PBS) was used for fixation and DAPI was used for staining nuclei. […] Live and dead cell images were captured at 10× magnification on a Nikon Eclipse TE2000-E microscope and analyzed with NIS-Element program or a Carl Zeiss Axio Observer microscope with an onstage incubation chamber having a humidified 5% CO2 supply. […] […] To do this surviving cells were counted after two 4 h sessions of OMF stimulation over 24 h in the presence and absence of a cryptochrome antagonist, KS15.

[3] = system: rat liver mitochondria (RLM); test: O2 electrode trace of rat liver mitochondria metabolizing succinate under OMF stimulation; format: biochemical; conditions: 5 μM bongkrekic acid, RLM metabolizing 5 mM succinate
Method: FIG. 18A illustrates an apparatus 1800 used to perform the procedures outlined above. The apparatus 1800 includes oncoscillator component and generates OMF by rotating an N52 permanent Neodymium rare earth magnet. The oncoscillator assembly is held by a microphone stand, placed next to the water jacketed O2 electrode with a 5 mm air gap, halting vibration transfer. The oncoscillator is positioned so that the center of 1 ml media chamber is exposed to a magnetic field of ≈8 mT. The rotation of the oncoscillator magnet has a small artifactual effect on the O2 electrode stirrer bar giving rise to an apparent drop or rise in O2 levels.
The effect of OMF on energized rat liver mitochondria (RLM) was examined. […] After the addition of succinate the slow ‘State 4’ consumption of O2 (≈10 e^−s^−1) that is typical of RLM oxidizing succinate in the absence of ADP (‘State 3’) or uncouplers is observed. In state 4 the electron flux from succinate dehydrogenase, the bc1 complex and cytochrome c oxidase is controlled by the presence of a large membrane potential (ΔΨ) and ΔpH, estimated to be […] and 11 mV, respectively, under similar conditions.
When OMF stimulation is initiated, respiration is completely halted for the whole 5-min OMF stimulation period. […] After this second stimulation regime ended, respiration restarted at the rate recorded prior to the stimulation cycle. […]

[4] = system: DIPG cells; test: O2 consumption of primary DIPG cells under OMF stimulation cycles; format: cell-based, human; conditions: 5 μM bongkrekic acid
From the text: Before OMF stimulation the O2 consumption rate is ≈40 pMol O2 sec^−1 million cells^−1, similar to that seen in Chinese hamster ovary cells (100%). During the first five minutes of OMF stimulation cycle, respiration rate falls by a third, and during the first fifteen-minute pause this respiration rate remains at 65% of the initial rate. During the second stimulation cycle, respiration falls to only 45% of the control rate. When the cycle ends the rate rises to 58%, but over the 15-minute pause the flux slows down. During the third stimulation cycle, O2 consumption is held at half the initial rate, but when stimulation ceases a rapid increase in respiration is observed, which increases over the first 10 min and then begins to slow.
The large increase in mitochondrial electron flux that is observed at the end of the third cycle is consistent with a relatively homogenous population of cells, all undergoing MPT simultaneously. To test if this is the correct interpretation of the data, the experiment was rerun, but this time in the presence of 5 μM bongkrekic acid (FIG. 20B). Blocking the ANT with bongkrekic acid slows the steady state mitochondrial electron flux to 55% of that seen in its absence (both rates arc normalized to 100% in each panel for case of interpretation). […]
O2 consumption of cells was measured in PBS, 10 mM glucose, 37° C. […]

[5] = system: high-grade meningioma cells; test: O2 consumption of primary high-grade meningioma cells under OMF stimulation cycles; format: cell-based, human; conditions: cells pretreated with bongkrekic acid
From the text: FIG. 21 follows the format of FIG. 20, but this time primary high-grade meningioma cells were used, showing that OMF stimulation cycles cause MPT. In these cells stimulation causes a 75% drop in the electron flux, and after the end of the first cycle, the cells maintain only half their initial rate (FIG. 21A). During the second cycle of stimulation mitochondrial respiration is completely halted, and as soon as the stimulation stops there is a burst of O2 uptake ≥6 times the initial steady state level. This rate drops in a first order manner.
Oxygen electrode data collection: A thermostatically controlled (37° C.), water-jacketed, glass-walled, Clark-type O2 electrode was used throughout. […] There was a degree of crosstalk between to stirring bar of the O2-electrode chamber and the oncoscillator; this interaction manifests itself as jumps or drops in the apparent O2 concentrations at the beginning or the end of OMF stimulation.
The homogenates were grown in DMEM with 20% FBS, 1U GlutaMax™, sodium pyruvate (1 mM), penicillin (100 U/ml), and streptomycin ([…]).
O2 consumption of cells was measured in PBS, 10 mM glucose, 37° C. 2 μM carbonyl cyanide trifluoromethoxyphenylhydrazone.

## N#CC(C#N)=NNc1ccc(OC(F)(F)F)cc1 [FCCP, carbonyl cyanide-p-trifluoromethoxyphenylhydrazone]
[1]
  O2 consumption after addition of FCCP: did not lead to an increase in O2 consumption

## CCO[C@H](Cc1cccc(/C(C)=N/OCc2ccc(Br)cc2)c1)C(=O)O [KS15]
[2]; two 4 h sessions of OMF stimulation over 24 h, presence vs absence of KS15
  effect on the decrease in cell count produced by OMF: significant partial attenuation

## Cc1c(C)c2c(c(C)c1O)CCC(C)(C(=O)O)O2 (stereo not drawn) [Trolox]
[2]; 4 h exposure to OMF, antioxidant Trolox
  counteraction of the decrease in GBM cell count due to OMF-induced ROS: predictions are confirmed

## NCc1ccccc1 [benzylamine]
[2]; 4 h exposure to OMF, benzylamine
  potentiation by OMF of the cell killing effect of the ROS inducer: predictions are confirmed

## CO[C@H](C/C=C\C=C\CC/C=C/C[C@H](C)/C=C/C(=C\C(=O)O)CC(=O)O)/C(C)=C\C=C(/C)C(=O)O [bongkrekic acid]
[3]
  mitochondrial 'State 4' flux: inhibits
[3]; OMF stimulation
  oncoscillator-induced permeability transition: completely abolishes
[4]; 2×10^6/ml DIPG cells in glucose supplemented PBS
  steady state mitochondrial electron flux, % of that seen in absence of bongkrekic acid: 55%
[4]; repeated OMF stimulation cycles
  OMF-induced permeability transition (increase in respiration rate): no increase in rate indicative of the permeability transition; also recorded: blocking the permeability
[5]
  OMF-induced increase in O2 uptake rate (MPT): abolished; also recorded: blocks the permeability
